Reference: patent US8637684B2, “Tautomycetin and tautomycetin analog biosynthesis” (Wisconsin Alumni Research Foundation, priority 2010, dated 2014)

Target: T1, CD45 (Homo sapiens, UniProt P08575)
T1 sequence (P08575 26-1306): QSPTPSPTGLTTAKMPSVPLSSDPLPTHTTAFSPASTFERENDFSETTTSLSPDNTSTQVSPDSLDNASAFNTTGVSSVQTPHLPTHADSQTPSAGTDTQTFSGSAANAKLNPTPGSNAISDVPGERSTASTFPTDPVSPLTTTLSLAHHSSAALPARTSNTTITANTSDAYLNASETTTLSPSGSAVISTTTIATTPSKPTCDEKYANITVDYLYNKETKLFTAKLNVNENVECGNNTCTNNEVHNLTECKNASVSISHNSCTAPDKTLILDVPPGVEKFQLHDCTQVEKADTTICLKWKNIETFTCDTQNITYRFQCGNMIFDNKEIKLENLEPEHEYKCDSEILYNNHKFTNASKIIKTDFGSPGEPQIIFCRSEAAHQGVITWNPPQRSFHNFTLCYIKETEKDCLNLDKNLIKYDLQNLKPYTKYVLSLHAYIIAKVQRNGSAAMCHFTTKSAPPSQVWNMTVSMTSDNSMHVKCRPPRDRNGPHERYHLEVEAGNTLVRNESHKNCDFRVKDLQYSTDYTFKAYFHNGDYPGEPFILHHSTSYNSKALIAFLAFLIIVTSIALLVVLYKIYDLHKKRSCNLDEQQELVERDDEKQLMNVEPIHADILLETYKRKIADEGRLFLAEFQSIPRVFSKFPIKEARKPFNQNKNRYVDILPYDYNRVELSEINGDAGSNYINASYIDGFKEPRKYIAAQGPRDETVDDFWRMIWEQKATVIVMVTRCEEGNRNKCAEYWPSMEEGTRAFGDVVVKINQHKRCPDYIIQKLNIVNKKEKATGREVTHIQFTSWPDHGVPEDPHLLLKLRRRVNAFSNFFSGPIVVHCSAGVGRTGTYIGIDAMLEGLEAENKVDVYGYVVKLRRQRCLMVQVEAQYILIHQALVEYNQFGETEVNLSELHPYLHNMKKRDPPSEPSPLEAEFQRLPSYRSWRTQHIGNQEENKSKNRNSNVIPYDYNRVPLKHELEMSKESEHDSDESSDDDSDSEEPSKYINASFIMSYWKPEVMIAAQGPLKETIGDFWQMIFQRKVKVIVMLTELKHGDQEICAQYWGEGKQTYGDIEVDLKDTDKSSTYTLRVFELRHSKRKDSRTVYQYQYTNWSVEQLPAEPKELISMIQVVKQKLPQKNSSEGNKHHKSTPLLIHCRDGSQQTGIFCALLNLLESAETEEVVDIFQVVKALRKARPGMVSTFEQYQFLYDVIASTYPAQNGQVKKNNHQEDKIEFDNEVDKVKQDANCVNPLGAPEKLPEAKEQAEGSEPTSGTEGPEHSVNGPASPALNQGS
Test: PTP activity assay with pNPP as substrate: CD45
Format: biochemical
Conditions: pNPP as substrate at Km, pH 7.0, 25° C., I = 0.15 M
Experimental: The PTP activity was assayed using pNPP as a substrate at 25° C. in 50 mM 3,3-dimethylglutarate buffer, pH 7.0, containing 1 mM EDTA with an ionic strength of 0.15 M adjusted by NaCl. TTM, TTN and the engineered analogs were analyzed for inhibition of a panel of PTPs at 10 μM compound concentration. For each enzyme screened, test compounds were diluted to 20 μM in 100 μL and combined with 50 μL pNPP at a concentration of 4×Km. The reaction was initiated by the addition of 50 μL of 4× concentrated enzyme and pNPP was allowed to convert to the product p-nitrophenol. The reaction was quenched by the addition of 50 μL of 5N NaOH. Nonenzymatic hydrolysis of pNPP was corrected by measuring the control without the addition of enzyme. Production of p-nitrophenol was monitored by a Spectra MAX385 microplate spectrophotometer (Molecular Devices) at 405 nm using a molar extinction coefficient of 18,000 M^−1 cm^−1. IC50 values were calculated by fitting the absorbance at 405 nm versus inhibitor concentration to the following equation: AI/A0=IC50/(IC50+[I]) where AI is the absorbance at 405 nm of the sample in the presence of inhibitor; Ao is the absorbance at 405 nm in the absence of inhibitor; and [I] is the concentration of the inhibitor.

## tautomycetin [TTN]
  IC50: > 50 µM
